In patent US20170307610A1, “COMPOUNDS THAT BIND DYSTROGLYCAN AND USES THEREOF” (OREGON HEALTH & SCIENCE UNIVERSITY, priority 2014, published 2017):

Tested on: E3D1cre19 MECs (β1 Int−/− or β1 Int+)
Assay: Laminin internalization in β1 integrin-deleted or re-expressing cells, flow cytometry
Type: cell-based, mouse
Excerpt: The integrin family of ECM receptors is expressed in the DG−/− cell population (MepG-vec and MepL-vec cell lines, FIG. 11A), but are apparently unable to mediate significant laminin internalization alone (FIG. 7B). To directly test the role of integrins in laminin internalization, an MEC cell line containing an engineered β1 integrin (β1 int) deletion, E3D1cre19 (β1 Intl−/−) was used (cre19-vec, FIG. 11A, see Example 10 infra). These β1 int−/− cells were infected with the empty vector retrovirus or with a WT β1 int expressing retrovirus. The re-expression of WT β1 integrin in β1 int−/− cells produced a modest but statistically insignificant change ([…]) in laminin internalization (MFI β1 Intl−=21.4±3; β1 Int+=26.8±1.2; n=6, p=0.17) (FIG. 7D). […] Therefore, although the β1 integrins are not required for the majority laminin internalization, they can enhance it, possibly as co-receptors with DG (Leonoudakis D et al, 2010 supra; Weir M L et al, 2006 supra).
Cell culture—Primary mammary epithelial cells from control or ΔDGK14-Cre mid-pregnant mice were obtained as previously described (Weir et al, 2006 supra). DG-knockout (MEpG and MEpL cells), and WT E3D1 mammary epithelial cells were established as described previously (Weir et al, 2006 supra) from floxed-DG mice. β1 int-knockout (E3D1 cre19) MECs were established from floxed -β1 int primary MECS, as above. MECs were grown in DME/F12, 2% FBS, 10 μg/ml insulin and 5 ng/ml EGF (BD Biosciences, San Jose, Calif., USA). […] These cultures produced >95% astrocytes as determined by staining with GFAP astrocyte marker antibody.
Flow Cytometry—Cells were plated in 12 well plates at 200,000 cells/well. […] Using a BD FACScan flow cytometer (BD Biosciences, San Jose, Calif., USA), 10,000 cells/well were counted, background fluorescence from the cell counts with no added laminin subtracted and the mean fluorescence intensity values reported. […]

Rhod-Ln: laminin-111 labeled with NHS-rhodamine; dystroglycan binding reagent
MFI of internalized laminin, β1 Int+ cells (WT β1 integrin re-expressed, n=6): 26.8±1.2 | MFI of internalized laminin, β1 Int−/− cells (empty vector, n=6): 21.4±3 | increase in laminin internalization on re-expression of WT β1 integrin (statistically insignificant, p=0.17): 20%
